Results on 9 molecules are retold here after patent US20100311714A1, “1H-IMIDAZO[4,5-c]QUINOLINONE COMPOUNDS” (priority 2009, published 2010).

Read-outs that look alike come from different tables or passages of the source.

The nature of series [1]: Parallel Artificial Membrane Permeability Assay (PAMPA) at pH 6.8. It counts as physicochemical. An excerpt: The physicochemical properties of relevance for the absorption of the compound, such as the solubility and the membrane permeability, especially at a pH close to neutral pH can be measured using the procedure as described by L. ZHOU et al. in JOURNAL OF PHARMACEUTICAL SCIENCES, VOL. 96, NO. 11, p. 3052-3071 (2007) for the solubility at pH 6.8 and the procedure as described by F. Wohnsland and B. Faller in Journal of Medicinal Chemistry Vol 44, p. 923-930 (2001) for the Parallel Artificial Membrane Permeability Assay (PAMPA) at pH 6.8.
The following permeability log Pe was measured for compound of formula (I) as exemplified below: […]
On the technique in general: PAMPA measures passive passage across an artificial lipid membrane.

Series [2] relates to PKB Ser473 phosphorylation in Rat1-myr-HA-p110 delta cells. Put plainly: Reverse protein array, PKB Ser473 phosphorylation in Rat1-myr-HA-p110 delta cells. It counts as cell-based. To be noted: Rattus norvegicus, 0.5 h, 30 minutes compound incubation, read-out: p-PKB/IC50_delta. As for the experimental part:
(§1) No. 15140-114) and 10 μg/ml Puromycine (Sigma, cat. No. P9620).
(§2) The Rat1-myr-HA-p110 alpha, beta and delta cells were trypsinized and counted with a CASY TT cell counter (Schärfe System GmbH, Reutlingen Germany). The cells were diluted in fresh DMEM complete medium and 3×10^4 cells/150 μl/well seeded in 96-well TPP-tissue culture plates (TPP, cat. No. 92096). The plates were incubated at 37° C. and 5% CO2 under humidified condition for at least 20 h. Compound of formula I working solutions were prepared freshly as serial 8 step dilutions (vol/vol) in DMSO on the day of the experiment. The working solutions were further diluted 1/500 in cell culture medium to get final compound concentrations of 10, 3.333, 1.111, 0.370, 0.123, 0.041, 0.014, 0.005 μM. The final DMSO concentration was kept constant at 0.2%. cell culture medium containing 0.2% DMSO was used as vehicle treatment control. Post incubation, the cells were treated with the serial compound dilution. 50 μl of the compound medium mixture was added to the wells containing cells and 150 μl DMEM medium and incubated for 30 minutes (37° C., 5% CO2). After 30 minutes of incubation, the medium mixture was quickly removed by aspiration. For cell lysis, a mixture of 10% CLB1 CeLyA lysis buffer (Zeptosens, cat. No. 9000), 90% CSBL1 CeLyA spotting buffer (Zeptosens, cat. No. 9020) was freshly prepared and supplemented with 1% Octyl β-D-glucopyranoside (SIGMA, cat. No. 08001-5G) and 1 mM Na-Orthovanadate (Sigma, cat No. S-6508). 50 μl of the described lysis buffer mix was added to each well, followed by 10 minutes of incubation on ice. After an additional freeze-thaw cycle, another 50 μl of the lysis buffer mix without Octyl β-D-glucopyranoside was added to the wells, and 90 μl of the cell lysate was transferred to a 96-well V-bottom plate (Fisher Scientific, cat. No. 6067Y), followed by a centrifugation step (5 min, 1500 rpm at 19° C. in an Eppendorf 5810R centrifuge) to remove the unlysed cell debris.
(§3) The samples were spotted onto ZeptoMARK® PWG protein microarray chips (Zeptosens, Witterswil, Switzerland) with the piezoelectric microdispense-based, non-contact Nano-Plotter 2.1 (GeSiM, Grosserkmannsdorf, Germany). Each sample was spotted at 4 different sample concentrations (d1=100%, d2=75%, d3=50%, d4=25%) by diluting the cell lysate with the corresponding volume of lysis buffer mix. After spotting the ZeptoMARK® protein microarrays, the chips are incubated for 1 hour at 37° C. To receive a uniform blocking result, the CeLyA blocking buffer BB1 (Zeptosens, cat. No. 9040) is administered via an ultrasonic nebulizer. After 20 minutes of blocking the chips are extensively rinsed with deionized water (Milli-Q quality, 18MΩ×cm) and dried in a nitrogen air flow.
(§4) After the sample spotting and blocking procedure, the ZeptoMARK® chips were transferred to the ZeptoCARRIER (Zeptosens, cat. No. 1100), whose six flow cells individually address the six arrays on a chip, and washed twice with 200 μl CAB1 CeLyA assay buffer (Zeptosens, cat. No. 9032). The assay buffer was then aspirated and each compartment incubated with 100 μl of the primary target antibody (pAkt Ser473; CST#9271) at RT over night. Post incubation, the primary antibody was removed, the arrays washed twice with CAB1 buffer and further incubated with 100 μl of Alexa fluor 647-labeled anti rabbit IgG Fab fragments (Invitrogen; #Z25305) for one hour at RT in the dark. After incubation, the arrays were washed twice with 200 μl CAB1 buffer. The fluorescence of the target-bound Fab fragments is read out on the ZeptoReader (Zeptosens, Witterswil, Switzerland) using a laser (excitation wavelength 635 nm) and a CCD camera. The fluorescence signal was assessed with exposure times of 1, 3, 5 and 10 seconds, depending on the intensity of the signal. The resulting four images taken per array are stored as 16-bit TIF files. […]

In series [3] the test system is PKB Ser473 phosphorylation in Rat1-myr-HA-p110 beta cells. Put plainly: Reverse protein array, PKB Ser473 phosphorylation in Rat1-myr-HA-p110 beta cells. It counts as cell-based. Conditions: Rattus norvegicus, 0.5 h, 30 minutes compound incubation, read-out: p-PKB/IC50_beta. As for the experimental part: as §1, §2, §3, §4
The subject of series [4] is S6 Ribosomal Protein phosphorylation Ser235/236 in TSC1 null mouse embryo fibroblast (MEF) cells. Put plainly: Reverse protein array, S6 Ribosomal Protein phosphorylation in TSC1 null MEF cells. It counts as cell-based. Conditions: 1 h, TSC1-/- MEFs, 60 minutes. As for the experimental part:
TSC1−/− MEFs cells (provided by D. Kwiatkowski), were cultivated in Dulbecco's modified Eagle's medium (DMEM high Glucose, GIBCO, cat. No. 41956-039) supplemented with 10% heat inactivated fetal bovine calf serum (Amimed, cat. No. 2-01F16-I), 1% L-Glutamine (Invitrogen, cat. No. 25030-02), 1% penicillin-streptomycin (GIBCO, cat. No. 15140-114) at 37° C. in a 5% CO2 and 95% relative humidity atmosphere incubator.
The TSC1−/− cells were trypsinized and counted with a CASY TT cell counter (Schärfe System GmbH, Reutlingen Germany). The cells were diluted in fresh DMEM complete medium and 0.75×10^4 cells/150 μl/well seeded in 96-well TPP-tissue culture plates (TPP, cat. No. 92096). The plates were incubated at 37° C. and 5% CO2 under humidified condition for at least 20 h. Working solutions were prepared freshly as serial 8 step dilutions (vol/vol) in DMSO on the day of the experiment. The working solutions were further diluted 1/5000 in cell culture medium to get final compound concentrations of […]. The final DMSO concentration was kept constant at 0.02%. cell culture medium containing 0.02% DMSO was used as vehicle treatment control. Post incubation, the cells were treated with the serial compound dilution. 50 μl of the compound medium mixture was added to the wells containing cells and 150 μl DMEM medium and incubated for 60 minutes (37° C., 5% CO2). After 60 minutes of incubation, the medium mixture was quickly removed by aspiration. For cell lysis, a mixture of 10% CLB1 CeLyA lysis buffer (Zeptosens, cat. No. 9000), 90% CSBL1 CeLyA spotting buffer (Zeptosens, cat. No. 9020) was freshly prepared and supplemented with 1% Octyl β-D-glucopyranoside (SIGMA, cat. No. 08001-5G) and 1 mM Na-Orthovanadate (Sigma, cat No. S-6508). 50 μl of the described lysis buffer mix was added to each well, followed by 10 minutes of incubation on ice. After an additional freeze-thaw cycle, another 50 μl of the lysis buffer mix without Octyl β-D-glucopyranoside was added to the wells, and 90 μl of the cell lysate was transferred to a 96-well V-bottom plate (Fisher Scientific, cat. No. 6067Y), followed by a centrifugation step (5 min, 1500 rpm at 19° C. in an Eppendorf 5810R centrifuge) to remove the unlysed cell debris.
The spotting of the chips follows the previous described method.
The signal detection and the data analysis follows the previous described method using the pS6 ribosomal protein Ser235/236 (CST, cat. No. #2211) as a primary antibody.

The subject of series [5] is PKB Ser473 phosphorylation in Rat1-myr-HA-p110 alpha cells. Put plainly: Reverse protein array, PKB Ser473 phosphorylation in Rat1-myr-HA-p110 alpha cells. It counts as cell-based. Conditions: Rattus norvegicus, 0.5 h, 30 minutes compound incubation, read-out: p-PKB/IC50_alpha. As to the method:
as §1, §2, §3, §4

For `Cc1ncccc1-n1c(=O)n(C)c2cnc3ccc(-c4ccc5nccn5c4)cc3c21` [Example 2.23, 8-Imidazo[1,2-a]pyridin-6-yl-3-methyl-1-(2-methyl-pyridin-3-yl)-1,3-dihydro-imidazo[4,5-c]quinolin-2-one], in series [1], the “HT-Perm logPe pH6.8” value is on record as −5.3. The IC50 worked out at 1060 nM in series [2], 273 nM in series [3], 37 nM in series [4] (read-out: p-S6 IC50) and 64.1 nM in series [5].

With `CCOc1ccc(-c2ccc3ncc4c(c3c2)n(-c2ccc(OC)nc2OC)c(=O)n4C)cn1` [Example 8.2, 1-(2,6-Dimethoxy-pyridin-3-yl)-8-(6-ethoxy-pyridin-3-yl)-3-methyl-1,3-dihydro-imidazo[4,5-c]quinolin-2-one], the “HT-perm/logPe pH6.8” value in series [1] is reported as −4.3. Besides, the IC50 in series [2] turned out to be 113 nM; in series [3], 34.6 nM; in series [4] (read-out: p-S6) it was 7.69 nM; in series [5], 7.36 nM.

For the molecule `CNc1ccc(-c2ccc3ncc4c(c3c2)n(-c2ccc(OC)nc2OC)c(=O)n4C)cn1` [Example 8.3, 1-(2,6-Dimethoxy-pyridin-3-yl)-3-methyl-8-(6-methylamino-pyridin-3-yl)-1,3-dihydro-imidazo[4,5-c]quinolin-2-one], the “HT-perm/logPe pH6.8” value in series [1] is reported as −3.8. Further, the IC50 in series [2] is 19.5 nM; in series [3], less than 4.57 nM; in series [4] (read-out: p-S6), 1.05 nM; in series [5], 4.57 nM.

On to `COCCOc1cncc(-c2ccc3ncc4c(c3c2)n(-c2ccc(OC)nc2OC)c(=O)n4C)c1` [Example 8.8, 1-(2,6-Dimethoxy-pyridin-3-yl)-8-[5-(2-methoxy-ethoxy)-pyridin-3-yl]-3-methyl-1,3-dihydro-imidazo[4,5-c]quinolin-2-one], for which the “HT-Perm logPe pH6.8” value in series [1] was −3.8. The IC50 was found to be 143 nM in series [2], 115 nM in series [3], 7 nM in series [4] (read-out: p-S6 IC50) and 72.6 nM in series [5].

For `CCOc1ccc(-c2ccc3ncc4c(c3c2)n(-c2ccc(OC)nc2C)c(=O)n4C)cn1` [Example 11.1, 8-(6-Ethoxy-pyridin-3-yl)-1-(6-methoxy-2-methyl-pyridin-3-yl)-3-methyl-1,3-dihydro-imidazo[4,5-c]quinolin-2-one], the “HT-perm/logPe pH6.8” value in series [1] is recorded as −3.8. Besides, the IC50 in series [2] stood at 92.1 nM; in series [3], 11.7 nM; in series [4] (read-out: p-S6), 10.6 nM; in series [5] it was 5.01 nM.

Take `CNc1ncc(-c2ccc3ncc4c(c3c2)n(-c2cncc(C)c2)c(=O)n4C)cn1` [Example 17.2, 3-Methyl-8-(2-methylamino-pyrimidin-5-yl)-1-(5-methyl-pyridin-3-yl)-1,3-dihydro-imidazo[4,5-c]quinolin-2-one]: the IC50 was 206 nM in series [2], 94.6 nM in series [3], 10 nM in series [4] (read-out: p-S6 IC50) and 46.8 nM in series [5].

With `COc1ncc(-c2ccc3ncc4c(c3c2)n(-c2ccc(C(C)(C)O)nc2C)c(=O)n4C)c(OC)n1` [Example 31.3, 8-(2,4-Dimethoxy-pyrimidin-5-yl)-1-[6-(1-hydroxy-1-methyl-ethyl)-2-methyl-pyridin-3-yl]-3-methyl-1,3-dihydro-imidazo[4,5-c]quinolin-2-one], in series [1], the “HT-Perm logPe pH6.8” value is reported as −4.1. In addition, the IC50 in series [2] was determined as 26.4 nM; in series [3], 132 nM; in series [4] (read-out: p-S6 IC50), 1 nM; in series [5] it was 5.3 nM.

For `CCNc1cc(-c2ccc3ncc4c(c3c2)n(-c2ccc(N3CC[C@H](O)C3)nc2C)c(=O)n4C)cnc1CO` [Example 32.6, 8-(5-Ethylamino-6-hydroxymethyl-pyridin-3-yl)-1-[6-((S)-3-hydroxy-pyrrolidin-1-yl)-2-methyl-pyridin-3-yl]-3-methyl-1,3-dihydro-imidazo[4,5-c]quinolin-2-one], the IC50 in series [2] worked out at 83.2 nM; in series [3], 39.7 nM; in series [4] (read-out: p-S6 IC50), 8.6 nM; in series [5], 24.3 nM.

On to `Cc1nc(N2CC[C@@H](O)C2)ccc1-n1c(=O)n(C)c2cnc3ccc(-c4cncc(C(C)(C)C#N)c4)cc3c21` [Example 34.5, 2-(5-{1-[6-((R)-3-Hydroxy-pyrrolidin-1-yl)-2-methyl-pyridin-3-yl]-3-methyl-2-oxo-2,3-dihydro-1H-imidazo[4,5-c]quinolin-8-yl}-pyridin-3-yl)-2-methyl-propionitrile], for which the IC50 amounted to 84.2 nM in series [2], 31 nM in series [3], 2 nM in series [4] (read-out: p-S6 IC50) and 30.3 nM in series [5].
